Results on 3 compounds are retold here after paper PMC9328652, “A novel class of fast‐acting antimalarial agents: Substituted 15‐membered azalides” (British Journal of Pharmacology, 2020).

Data set [1] concerns Plasmodium falciparum K1 (CQ,PY). Briefly: [3H]hypoxanthine incorporation antimalarial assay, strain K1. Format: cell-based. The method, then:
(§1) The activity of the test compounds against P. falciparum in vitro was determined using the tritiated hypoxanthine incorporation assay of Desjardins et al. and additionally modified by Milhous and Chulay (Chulay, Haynes, & Diggs, [1983]; Milhous, Weatherly, Bowdre, & Desjardins, [1985]).
(§2) Compounds were dissolved in DMSO and subsequently diluted in the culture medium (RPMI 1640) supplemented with 10% v/v human plasma. Serial 1:2 drug dilutions were prepared in triplicate in microtitre plates. Culture medium supplemented with 10% v/v human plasma and type A Rhesus positive human erythrocytes infected with P. falciparum strains was added to yield a haematocrit of 3% and a parasitaemia of 0.25–0.55%. The plates were incubated at 37°C in a modular incubator flushed with a mixture of 5% oxygen, 3% carbon dioxide, and 92% nitrogen for 48 h, and then [^3H]hypoxanthine was added to give a final concentration of 12.5–16 μCi·ml^−1. After incubation for additional 24 h, particulate matter was harvested on fibreglass strips and hypoxanthine incorporation determined by scintillation spectrophotometry. […] Delayed death experiments were performed by this standard method but extending the incubation time with the drug up to 96 h.

In data set [2] the test system is Plasmodium falciparum 7G8 (CQ, PY). Put plainly: [3H]hypoxanthine incorporation antimalarial assay, strain 7G8. Format: cell-based. The method, then:
as §1, §2

Data set [3] concerns Plasmodium falciparum FCR3 (CQ,AT). Briefly: [3H]hypoxanthine incorporation antimalarial assay, strain FCR3. Format: cell-based. Conditions: FCR3, 72 h, read-out: IC50 FCR3 (CQ,AT). The method, then: as §1, §2
A short description of data set [4]: Pharmacokinetic studies in CD-1 mice. The settings on record: for B/P (ratio of AUC0−t in whole blood and plasma): after oral administration; for DNAUCPO (AUC0−t divided by the dose) / Cmax: blood; for DNAUCPO (AUC0−t divided by the dose): oral gavage 12.5 mg·kg^−1; for half-life / Vd / clearance / bioavailability / AUC(0-t) / Cmax: Swiss albino CD-1, mouse; for Vd / clearance: iv; for AUC(0-t): AUC0-t; for AUC(0-t) / Cmax: oral gavage 12.5 mg/kg; for Cmax: C max. The method, then: For pharmacokinetic (PK) studies in mice, animals were dosed either by intravenous (i.v.) or oral (p.o.) route. For i.v. administration, the dosing volume was 10 ml·kg^−1 for a total dose of 12.5 mg·kg^−1, and for p.o. administration, the dosing volume was 20 ml·kg^−1 for a total dose of 12.5 mg·kg^−1. Dosing solutions were prepared in 100% saline ([…]) both for i.v. and p.o. administration for all compounds with the exception of compound 4 for which dosing solutions were prepared in PBS with 5% Cremophor‐EL (Fluka). Following i.v. dosing, blood samples were collected at 5 and 15 min, 1, 3, 6, 8, 24, and 48 h post‐dose. Following oral dosing, blood samples were collected at 15 and 30 min, 1, 2, 4, 6, 8, 24, and 48 h post‐dose.
For studies performed in Swiss albino CD‐1 mice (Harlan Laboratories, Spain), in order to obtain simultaneous blood and plasma profiles and blood‐to‐plasma (B/P) ratio, PK was performed using terminal sampling of N = 3 animals per time point and data evaluated using composite analysis. For studies performed in P. falciparum infected and non‐infected NODscidβ2m^−/− mice (Charles River Laboratories, France), only whole blood was obtained by serial sampling of N = 3 animals using tail puncture.
For analysis of whole blood samples, 25 μl of fresh blood were mixed with 25 μl of saponin solution (0.1% in water) and immediately frozen on dry ice. Plasma was obtained by centrifugation of fresh blood at 2,500 g for 10 min. Both blood and plasma samples were stored frozen at −80°C until analysis.
Diluted blood and plasma samples were processed under standard liquid–liquid extraction procedures using acetonitrile containing internal standard (clarithromycin, 100 ng·ml^−1) and analysed by LC–MS/MS in positive ion mode with electrospray. Samples were assayed for parent compound using a Sciex API 4000 and Sciex API‐2000 Triple Quadrupole Mass Spectrometer (Sciex, Division of MDS Inc., Toronto, Canada), against a series of matrix matched calibration curve standards, using multiple reaction monitoring (MRM) at the specific transitions for each compound. Non‐compartmental analysis was performed using WinNonlin, version 4.1 (Pharsight, Mountain View, CA), and the main pharmacokinetic parameters were estimated.

Data set [5] has as its system Plasmodium falciparum T9/94 (CQ). Put plainly: [3H]hypoxanthine incorporation antimalarial assay, strain T9/94. Conditions: 72 h, read-out: IC50 T9/94 (CQ). The data set is classed as cell-based. How it is done:
as §1, §2

The next data set deals with S. aureus ATCC13709. Briefly: Antibacterial screen, broth microdilution. The settings on record: Staphylococcus aureus. Format: cell-based. The method, then:
(§3) Antibacterial activity of compounds was determined by a standard broth microdilution method (Clinical Laboratory Standard Institute CLSI, [2009]), except that for Streptococcus strains lysed blood was substituted with 5% horse serum in the testing medium. […] The activities are expressed as minimum inhibitory concentrations (MICs) in units of μg·ml^−1. […] The organisms tested represented macrolide sensitive Gram‐positive pathogens that are mainly targeted by macrolide antibiotics. Tested streptococci were clinical isolates Streptococcus pneumoniae SP030 and Streptococcus pyogenes 3565 from internal strain collection, and other strains were obtained from ATCC bioresource centre, Staphylococcus aureus ATCC13709, Haemophilus influenzae ATCC49247, and Moraxella catarrhalis ATCC23246. Double dilutions of tested compounds were prepared using TECAN Genesis 150. Bacteria were grown on appropriate agar plates (Becton Dickinson, USA)—Columbia agar with 5% sheep blood for streptococci and M. catarrhalis, Mueller‐Hinton chocolate agar for H. influenzae , and Mueller‐Hinton agar for staphylococci.
A general note: Broth dilution looks for growth in wells or tubes with falling amounts of substance.

For the next data set, the system named is HepG2 cells. The settings on record: cited from earlier work.
The test system of a further data set is M. catarrhalis ATCC23246. Put plainly: Antibacterial screen, broth microdilution. The data set is classed as cell-based, Moraxella catarrhalis. Conditions: Moraxella catarrhalis, ATCC23246; broth microdilution. The method, then:
as §3

Data set [6] relates to Plasmodium falciparum 3D7A (sensitive). Put plainly: [3H]hypoxanthine incorporation antimalarial assay, strain 3D7A. Format: cell-based. Conditions: 72 h of incubation, N = 3. The method, then:
as §1, §2

Setting [7] is: whole blood, po, 12.5 mg/kg, F, CD‐1 mice, 12.5 mg·kg^−1 i.v. and p.o.
The mark [8] stands for this setting: K1, 72 h, read-out: IC50 K1 (CQ,PY).
[9] abbreviates: 7G8, 72 h, read-out: IC50 7G8 (CQ, PY).
Where [10] appears, read: whole blood, intravenous, 12.5 mg/kg.
Setting [11] is: whole blood, po, 12.5 mg/kg, fasted CD-1 mice.
Setting [12] is: whole blood, po, 12.5 mg/kg, fed CD-1 mice.

Values after ≈ are worked out from the molar mass of the structure shown. Read-outs that look alike come from different tables or passages of the source. Marks after values point to notes of the source that are not given here.

A word on the half-life: it is how long it takes for the measured level to halve. The Vd is a proportionality between amount in the body and measured concentration, not a real space. Read a low Vd as little distribution into tissue. In general, clearance refers to the volume of plasma or blood freed of the substance per unit of time. What is called bioavailability is the share of a dose that reaches the circulation, judged against a reference dose that is usually intravenous. Usually MIC stands for the lowest concentration found to suppress growth. A high value points to a need for much substance. On to `CC[C@H]1OC(=O)[C@H](C)[C@@H](O[C@H]2C[C@@](C)(OC)[C@@H](O)[C@H](C)O2)[C@H](C)[C@@H](O[C@@H]2O[C@H](C)C[C@H](N(C)C)[C@H]2O)[C@](C)(O)C[C@@H](C)CN(C)[C@H](C)[C@@H](O)[C@]1(C)O` [Azithromycin, reference compound], for which the IC50 in data set [1] (K1, 72 h of incubation, N = 3, read-out: IC50 K1 (CQ,PY)) is 2.72 µM; in data set [2] (7G8, 72 h of incubation, N = 3, read-out: IC50 7G8 (CQ, PY)), 4.59 µM; in data set [3], 2.59 µM; in [5], 2.72 µM. The “B/P (ratio of AUC0−t in whole blood and plasma)” value in data set [4] (CD‐1 mice) is recorded as 2.4. Also, the “DNAUCPO (AUC0−t divided by the dose)” value in data set [4] (CD‐1 mice) was 267 ng·kg·h/mL/mg. The compound also had a half-life in data set [4] (in vivo, 12.5 mg/kg) of 10.1 h. In data set [4] (whole blood, 12.5 mg/kg), this compound registered a Vd of 29.2 L/kg. Also, in [4] (whole blood, 12.5 mg/kg), the clearance was 2.41 L/h/kg. In data set [4] (setting [7]), the bioavailability is 61%. Also, the MIC is 1 mg/L (≈ 1.34 µM) against S. aureus ATCC13709 and not above 0.125 mg/L against M. catarrhalis ATCC23246. Besides, the “Tox50 HepG2” value in the data set on HepG2 cells is recorded as 203 ^b μM.
The AUC(0-t) is the area under the concentration-time curve up to a stated or last time point. A higher AUC(0-t) goes with more exposure. As a reminder, the Cmax is the maximum level reached in the sampled fluid or tissue. As to `CC[C@H]1OC(=O)[C@H](C)[C@@H](O[C@H]2C[C@@](C)(OC)[C@@H](O)[C@H](C)O2)[C@H](C)[C@@H](O[C@@H]2O[C@H](C)C[C@H](N(C)C)[C@H]2O)[C@](C)(O)C[C@@H](C)CN(CCCNc2ccnc3cc(Cl)ccc23)[C@H](C)[C@@H](O)[C@]1(C)O` [Compound 1], the IC50 in data set [6] amounted to 0.02 µM; in [1] (setting [8]), 0.023 µM; in data set [2] (setting [9]) it was 0.037 µM; in data set [3], 0.022 µM; in data set [5] it was 0.013 µM. The “B/P (ratio of AUC0−t in whole blood and plasma)” value in data set [4] (CD‐1 mice) stood at 14.0. The “DNAUCPO (AUC0−t divided by the dose)” value in data set [4] (CD‐1 mice) came to 253 ng·kg·h/mL/mg. Moreover, the half-life in [4] (setting [10]) was 28.2 h. This compound also showed a Vd in data set [4] (whole blood, 12.5 mg/kg) of 4.42 L/kg. In data set [4] (whole blood, 12.5 mg/kg), the clearance came to 0.117 L/h/kg. The bioavailability stood at 11.3% in data set [4] (whole blood, oral, 12.5 mg·kg^−1, F, fasted CD-1 mice, ratio of AUC0-t after PO and IV); 3.75% in [4] (whole blood, oral, 12.5 mg·kg^−1, F, fed CD-1 mice, ratio of AUC0-t after PO and IV); 4% in data set [4] (setting [7]). Also, the figures for the AUC(0-t) in data set [4] (setting [11]) and in data set [4] (setting [12]) were 9.51 µg·h/mL and 3.16 µg·h/mL, respectively. The Cmax in [4] (setting [11]) was determined as 0.582 µg/mL; in [4] (setting [12]), 0.162 µg/mL. Moreover, the “increase in oral F in fasted versus fed mice” value in [4] (fed versus fasted mice) is given as “threefold increase”. Further, the MIC against S. aureus ATCC13709 worked out at 1 mg/L (≈ 1.05 µM); against M. catarrhalis ATCC23246, 2 mg/L (≈ 2.1 µM). For the same compound, the “Tox50 HepG2” value in the data set with HepG2 cells (ref Peric et al. ([2012])) was 30 ^c μM.
Turning to `CC[C@H]1OC(=O)[C@H](C)[C@@H](O)[C@H](C)[C@@H](O[C@@H]2O[C@H](C)C[C@H](N(C)C)[C@H]2OCCCNc2ccnc3ccccc23)[C@](C)(O)C[C@@H](C)CN[C@H](C)[C@@H](O)[C@]1(C)O` [Compound 3], the IC50 worked out at 0.02 µM in [6]; 0.024 µM in [1] (setting [8]); 0.017 µM in data set [2] (setting [9]); 0.022 µM in [3]; 0.021 µM in data set [5]. For the same compound, the “B/P (ratio of AUC0−t in whole blood and plasma)” value in data set [4] (CD‐1 mice) worked out at 3.7. The “DNAUCPO (AUC0−t divided by the dose)” value in data set [4] (CD‐1 mice) is 362 ng·kg·h/mL/mg. The compound further gave a half-life in data set [4] (setting [10]) of 15.6 h. The compound further showed a Vd in [4] (whole blood, 12.5 mg/kg) of 13.4 L/kg. For the same compound, in data set [4] (whole blood, 12.5 mg/kg), the clearance is 0.606 L/h/kg. Moreover, the bioavailability in data set [4] (setting [7]) is 26%. The MIC with S. aureus ATCC13709 and in the data set with M. catarrhalis ATCC23246 was more than 64 mg/L each time. In the data set on HepG2 cells (ref Pesic et al. ([2012])), the “Tox50 HepG2” value is reported as 83 ^b μM.
